Laboratory results reported in patent US5397705A, “Multiply mutated subtilisins” (Amgen Inc., priority 1992, dated 1995).
Changes are numbered by the printed parent chain. Where a SMILES comes first, the peptide text is derived from it.

Experiments:
Experiment in all cases: Kinetics of hydrolysis of succinyl Ala-Ala-Pro-Phe-para-nitroanilide by the subtilisin analog
[1] = biological target: T1, Bacillus subtilis aprA subtilisin analog [Asp^76, Ser^109, Ser^218, Ala^222] (Asn76Asp, Asn109Ser, Asn218Ser, Met222Ala) (Bacillus subtilis, UniProt P04189, M328A/N182D/N215S/N324S); format: biochemical; conditions: substrate succinyl Ala-Ala-Pro-Phe-para-nitroanilide
T1 construct: made in house; host or cells: Bacillus host cells (plasmid pAMB143)
T1 sequence (P04189 107-381 N182D/N215S/N324S/M328A): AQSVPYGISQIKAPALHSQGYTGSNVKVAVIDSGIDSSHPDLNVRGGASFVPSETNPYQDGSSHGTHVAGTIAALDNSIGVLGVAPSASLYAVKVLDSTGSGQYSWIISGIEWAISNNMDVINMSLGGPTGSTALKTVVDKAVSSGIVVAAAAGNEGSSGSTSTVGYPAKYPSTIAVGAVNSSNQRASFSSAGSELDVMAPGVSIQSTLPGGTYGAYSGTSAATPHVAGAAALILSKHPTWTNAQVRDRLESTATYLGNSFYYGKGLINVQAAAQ
Source text: (§1) As mentioned earlier, analog [Asp^76, Ser^109, Ser^218, Ala^222 ] has a lower specific activity toward azocasein than analog [Asp^76, Ser^109, Ser^218 ], with an approximate Vm of 0.02 dA/(min-mg/ml) versus 0.08 dA/(min-mg/ml) for [Asp^76, Ser^109, Ser^218 ]. To see if this decreased activity was specific for azocasein, or a general characteristic of the [Asp^76, Ser^109, Ser^218, Ala^222 ] analog, the kinetics of the hydrolysis of the artificial peptide succinyl Ala-Ala-Pro-Phe-para-nitroanilide was analyzed for [Asp^76, Ser^109, Ser^218, Ala^222 ] and [Asp^76, Set^109, Ser^218 ]. […] This specific activity is 4-fold less than that of aprA-subtilisin. The catalytic Ser is at position 221, and it appears that substitutions at position 222 interfere with substrate binding as well as with the rate limiting step of proteolysis.

[2] = biological target: T2, Bacillus subtilis aprA subtilisin analog [Asp^76, Ser^109, Ser^218] (Asn76Asp, Asn109Ser, Asn218Ser) (Bacillus subtilis, UniProt P04189, N182D/N215S/N324S); format: biochemical; conditions: substrate succinyl Ala-Ala-Pro-Phe-para-nitroanilide
T2 construct: made in house; host or cells: Bacillus subtilis (plasmid pAMB131)
T2 sequence (P04189 107-381 N182D/N215S/N324S): T1 sequence (P04189 107-381 N182D/N215S/N324S/M328A) with A222M
Source text: as §1

[3] = substrate: C[C@H](NC(=O)CCC(=O)O)C(=O)N[C@@H](C)C(=O)N1CCC[C@H]1C(=O)N[C@@H](Cc1ccccc1)C(=O)Nc1ccc([N+](=O)[O-])cc1; format: biochemical, Bacillus subtilis; conditions: other: substrate succinyl Ala-Ala-Pro-Phe-para-nitroanilide
Source text: as §1

With `C[C@H](NC(=O)CCC(=O)O)C(=O)N[C@@H](C)C(=O)N1CCC[C@H]1C(=O)N[C@@H](Cc1ccccc1)C(=O)Nc1ccc([N+](=O)[O-])cc1` [succinyl-L-alanyl-L-alanyl-L-prolyl-L-phenylalanyl-p-nitroanilide] (HELM PEPTIDE1{[O=C(O)CCC(=O)[*:2]].A.A.P.F.[O=[N+]([O-])c1ccc(N[*:1])cc1]}$$$$V2.0) the Vmax [1] was 1.1 dA/(min-nmole) and the Vmax [2] was 7.9 dA/(min-nmole).

B1: Bacillus subtilis aprA subtilisin analog [Asp^76, Ser^109, Ser^218] (Asn76Asp, Asn109Ser, Asn218Ser) (Bacillus subtilis subsp. subtilis str. 168; … (protein)
chain: T1 sequence (P04189 107-381 N182D/N215S/N324S/M328A) with A222M
notes: made in house; host or cells: Bacillus subtilis (plasmid pAMB131)
B1 was tested, and the Km ([3]; analog [Asp^76, Ser^109, Ser^218]) was 440 µM.

B2: Bacillus subtilis aprA subtilisin analog [Asp^76, Ser^109, Ser^218, Ala^222] (Asn76Asp, Asn109Ser, Asn218Ser, Met222Ala) (Bacillus subtilis subsp. subtilis … (protein)
chain: T1 sequence (P04189 107-381 N182D/N215S/N324S/M328A)
notes: made in house; host or cells: Bacillus host cells (plasmid pAMB143)
For B2, the Km ([3]; analog [Asp^76, Ser^109, Ser^218, Ala^222]) was 1400 µM.
